Measured values taken from patent US20240376099A1, “COMPOUNDS AND COMPOSITIONS AS INHIBITORS OF ENDOSOMAL TOLL-LIKE RECEPTORS” (Novartis AG, priority 2016, published 2024).

The molecules below were run against T1, TLR8 (Homo sapiens, UniProt Q9NR97) (assay: huPBMC TLR8 Antagonist IL-6 TR-FRET Assay). Details: human PBMCs stimulated with ssRNA40 1 μg/ml (DOTAP), 14-16 hrs; IL-6 TR-FRET read-out.
T1 sequence (Q9NR97 27-1041): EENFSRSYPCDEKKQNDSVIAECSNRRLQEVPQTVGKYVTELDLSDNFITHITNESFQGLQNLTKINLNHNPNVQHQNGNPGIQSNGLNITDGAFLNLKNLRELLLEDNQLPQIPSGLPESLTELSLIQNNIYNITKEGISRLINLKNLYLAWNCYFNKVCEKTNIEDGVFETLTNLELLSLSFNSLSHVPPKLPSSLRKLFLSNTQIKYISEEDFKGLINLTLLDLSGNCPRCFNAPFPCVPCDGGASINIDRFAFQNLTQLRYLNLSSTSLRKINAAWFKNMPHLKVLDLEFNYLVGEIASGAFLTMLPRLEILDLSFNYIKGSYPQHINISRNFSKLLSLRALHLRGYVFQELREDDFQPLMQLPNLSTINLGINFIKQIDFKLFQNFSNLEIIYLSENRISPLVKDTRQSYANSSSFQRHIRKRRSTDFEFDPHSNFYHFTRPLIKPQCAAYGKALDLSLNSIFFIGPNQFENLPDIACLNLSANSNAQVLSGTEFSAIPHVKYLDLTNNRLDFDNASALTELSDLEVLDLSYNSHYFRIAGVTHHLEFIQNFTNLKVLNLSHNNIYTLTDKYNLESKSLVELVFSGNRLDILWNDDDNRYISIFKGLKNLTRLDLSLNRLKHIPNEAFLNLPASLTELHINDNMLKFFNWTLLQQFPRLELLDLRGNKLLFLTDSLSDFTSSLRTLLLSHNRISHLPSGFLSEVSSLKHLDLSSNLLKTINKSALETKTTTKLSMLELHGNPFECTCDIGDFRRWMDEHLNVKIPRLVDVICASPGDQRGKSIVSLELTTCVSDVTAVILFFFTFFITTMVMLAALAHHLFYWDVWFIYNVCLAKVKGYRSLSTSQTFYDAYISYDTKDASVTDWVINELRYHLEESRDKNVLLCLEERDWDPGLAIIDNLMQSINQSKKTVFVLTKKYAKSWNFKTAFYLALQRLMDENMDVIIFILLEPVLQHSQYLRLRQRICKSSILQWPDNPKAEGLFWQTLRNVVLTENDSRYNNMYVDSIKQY
Type: cell-based
Design: Fresh blood was collected from normal human donors; endogenous in cells; host or cells: human PBMCs from fresh donor blood
Outline: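 Human PBMCs from fresh donor blood (150,000 cells/well) stimulated 14–16 h at 37 °C with DOTAP-complexed ssRNA40 (final 1 μg/ml for TLR8, 10 μg/mL for TLR7) or ODN2216 (final 0.3 μM, TLR9), 0.25% DMSO, ten-point 1/3 compound dilutions. Supernatant IL-6 read by HTRF (TLR8); IFNα by IFNα2b AlphaLISA (TLR7/TLR9).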
An IC50 of 366 nM was found for `COCCNC12CCC(Cn3nc(C)c4c3CCN(c3cc(C)nc5c3cnn5C)C4)(CC1)OC2` [compound 102, 1-((5-(1,6-dimethyl-1H-pyrazolo[3,4-b]pyridin-4-yl)-3-methyl-4,5,6,7-tetrahydro-1H-pyrazolo[4,3-c]pyridin-1-yl)methyl)-N-(2-methoxyethyl)-2-oxabicyclo[2.2.2]octan-4-amine] in this work. An IC50 of 119 nM was found for `Cc1nc(N2CCc3c(c(C)nn3CC34CCC(N5CCCCC5)(CC3)CC4)C2)c2cnn(C)c2n1` [compound 39, 1,6-dimethyl-4-(3-methyl-1-((4-(piperidin-1-yl)bicyclo[2.2.2]octan-1-yl)methyl)-6,7-dihydro-1H-pyrazolo[4,3-c]pyridin-5(4H)-yl)-1H-pyrazolo[3,4-c]pyrimidine] in this work. An IC50 of 13 nM was found for `Cc1cc(N2CCc3c(c(C)nn3CC34CCC(N5CCOC[C@@H]5C)(CC3)CC4)C2)c2cnn(C)c2n1` [compound 128, (S)-4-(4-((5-(1,6-dimethyl-1H-pyrazolo[3,4-b]pyridin-4-yl)-3-methyl-4,5,6,7-tetrahydro-1H-pyrazolo[4,3-c]pyridin-1-yl)methyl)bicyclo[2.2.2]octan-1-yl)-3-methylmorpholine] in this work. An IC50 of 289 nM was found for `Cc1nc(N2CCc3c(c(C)nn3CC34CCC(N)(CC3)CC4)C2)c2c(n1)c(C)nn2C` [Compound No. 26, 4-((3-methyl-5-(1,3,5-trimethyl-1H-pyrazolo[4,3-d]pyrimidin-7-yl)-4,5,6,7-tetrahydro-1H-pyrazolo[4,3-c]pyridin-1-yl)methyl)bicyclo[2.2.2]octan-1-amine] in this work. An IC50 of 186 nM was found for `Cc1nc(N2CCc3c(c(C)nn3CC34CCC(N5CCOCC5)(CC3)CC4)C2)c2cnn(C)c2n1` [compound 19, 4-(4-((5-(1,6-dimethyl-1H-pyrazolo[3,4-d]pyrimidin-4-yl)-3-methyl-4,5,6,7-tetrahydro-1H-pyrazolo[4,3-c]pyridin-1-yl)methyl)bicyclo[2.2.2]octan-1-yl)morpholine] in this work. An IC50 of 178 nM was found for `Cc1cc(N2CCc3c(c(C)nn3CC34CCC(NC(=O)CN5CC(O)C5)(CC3)CC4)C2)c2cnn(C)c2n1` [Compound No. 136, N-(4-((5-(1,6-dimethyl-1H-pyrazolo[3,4-b]pyridin-4-yl)-3-methyl-4,5,6,7-tetrahydro-1H-pyrazolo[4,3-c]pyridin-1-yl)methyl)bicyclo[2.2.2]octan-1-yl)-2-(3-hydroxyazetidin-1-yl)acetamide] in this work. An IC50 of 314 nM was found for `[2H]C([2H])([2H])N(C([2H])([2H])[2H])C12CCC(Cn3nc(C)c4c3CCN(c3nc(C)nc5c(C)nn(C)c35)C4)(CC1)CC2` [compound 40, 4-((3-methyl-5-(1,3,5-trimethyl-1H-pyrazolo[4,3-d]pyrimidin-7-yl)-4,5,6,7-tetrahydro-1H-pyrazolo[4,3-c]pyridin-1-yl)methyl)-N,N-bis(trideuteromethyl)bicyclo[2.2.2]octan-1-amine] in this work. An IC50 of 389 nM was found for `Cc1cc(N2CCc3c(c(C)nn3CC34CCC(N5CCN(C)C(=O)C5)(CC3)CC4)C2)c2cnn(C)c2n1` [Compound No. 104, 4-(4-((5-(1,6-dimethyl-1H-pyrazolo[3,4-b]pyridin-4-yl)-3-methyl-4,5,6,7-tetrahydro-1H-pyrazolo[4,3-c]pyridin-1-yl)methyl)bicyclo[2.2.2]octan-1-yl)-1-methylpiperazin-2-one] in this work. An IC50 of 361 nM was found for `Cc1cc(N2CCc3c(c(C)nn3CC34CCC(NC(=O)C5CNC5)(CC3)CC4)C2)c2cnn(C)c2n1` [compound 131, N-(4-((5-(1,6-dimethyl-1H-pyrazolo[3,4-b]pyridin-4-yl)-3-methyl-4,5,6,7-tetrahydro-1H-pyrazolo[4,3-c]pyridin-1-yl)methyl)bicyclo[2.2.2]octan-1-yl)azetidine-3-carboxamide] in this work. An IC50 of 4590 nM was found for `Cc1nn(CC23CCC(N)(CC2)CC3)c2c1CN(c1ccnc3[nH]ncc13)CC2` [compound 41, 4-((3-methyl-5-(1H-pyrazolo[3,4-b]pyridin-4-yl)-4,5,6,7-tetrahydro-1H-pyrazolo[4,3-c]pyridin-1-yl)methyl)bicyclo[2.2.2]octan-1-amine] in this work. An IC50 of 932 nM was found for `CNCCC(=O)NC12CCC(Cn3nc(C)c4c3CCN(c3cc(C)nc5c3cnn5C)C4)(CC1)CC2` [compound 142, N-(4-((5-(1,6-dimethyl-1H-pyrazolo[3,4-b]pyridin-4-yl)-3-methyl-4,5,6,7-tetrahydro-1H-pyrazolo[4,3-c]pyridin-1-yl)methyl)bicyclo[2.2.2]octan-1-yl)-3-(methylamino)propanamide] in this work. An IC50 of 72 nM was found for `Cc1nc(N2CCc3c(c(C)nn3CC34CCC(NC(=O)[C@@H]5COCCN5)(CC3)CC4)C2)c2c(n1)c(C)nn2C` [compound 33, (S)-N-(4-((3-methyl-5-(1,3,5-trimethyl-1H-pyrazolo[4,3-d]pyrimidin-7-yl)-4,5,6,7-tetrahydro-1H-pyrazolo[4,3-c]pyridin-1-yl)methyl)bicyclo[2.2.2]octan-1-yl)morpholine-3-carboxamide] in this work. An IC50 greater than 10000 nM was found for `CCNCC(=O)NC12CCC(Cn3nc(C)c4c3CCN(c3cc(C)nc5cn[nH]c35)C4)(CC1)CC2` [compound 124, 2-(ethylamino)-N-(4-((3-methyl-5-(5-methyl-1H-pyrazolo[4,3-b]pyridin-7-yl)-4,5,6,7-tetrahydro-1H-pyrazolo[4,3-c]pyridin-1-yl)methyl)bicyclo[2.2.2]octan-1-yl)acetamide] in this work. An IC50 of 79 nM was found for `Cc1nc(N2CCc3c(c(C)nn3CC34CCC(N5CCOCC5)(CC3)CC4)C2)c2c(C)noc2n1` [compound 37, 3,6-dimethyl-4-(3-methyl-1-((4-morpholinobicyclo[2.2.2]octan-1-yl)methyl)-6,7-dihydro-1H-pyrazolo[4,3-c]pyridin-5(4H)-yl)isoxazolo[5,4-d]pyrimidine] in this work. An IC50 greater than 10000 nM was found for `Cc1c2c(nn1CC13CCC(N)(CC1)CC3)CCN(c1ccnc3[nH]ncc13)C2` [compound 42, 4-((3-methyl-5-(1H-pyrazolo[3,4-b]pyridin-4-yl)-4,5,6,7-tetrahydro-2H-pyrazolo[4,3-c]pyridin-2-yl)methyl)bicyclo[2.2.2]octan-1-amine] in this work. An IC50 of 16 nM was found for `Cc1cc(N2CCc3c(c(C)nn3CC34CCC(N5CCO[C@@H](C)C5)(CC3)CC4)C2)c2cnn(C)c2n1` [compound 109, (S)-4-(4-((5-(1,6-dimethyl-1H-pyrazolo[3,4-b]pyridin-4-yl)-3-methyl-4,5,6,7-tetrahydro-1H-pyrazolo[4,3-c]pyridin-1-yl)methyl)bicyclo[2.2.2]octan-1-yl)-2-methylmorpholine] in this work.
